Common to all, as to experiment: inhibition of tumour cell growth, NCI panel, 48 h
Experiment [1] relates to 786-0 renal.
In experiment [2] the test system is A498 renal.
In experiment [3] the test system is A549 NSCLC.
Experiment [4] has as its system CCRF-CEM leukemia.
For experiment [5], the system named is IGROV1 ovarian.
Experiment [6] deals with MALME-3M melanoma.
Experiment [7] relates to MCF7 breast.
The test system of experiment [8] is NCI-H460 lung.
In experiment [9] the test system is OVCAR-8 ovarian.
The subject of experiment [10] is SN12C renal.

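Exposure lasted 48 hours, with cells grown in 96-well plates and compounds tested at five concentrations. At the TGI there is no net growth.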

The values below come from PubChem BioAssay (NCI).

As to `CC(=O)Oc1ccc(/C=C/C(=O)O[C@H]2CCCC[C@@H]2OC(=O)/C=C/c2ccc(OC(C)=O)c(OC(C)=O)c2)cc1OC(C)=O`, the TGI in [1] was 36 µM; in [2], 38.2 µM; in experiment [3], greater than 100 µM; in experiment [4], 16.9 µM; in experiment [5] it was 64.9 µM; in experiment [6], 37.1 µM. Also, the TGI was 42.9 µM in experiment [7], greater than 100 µM in experiment [8], 61.7 µM in [9] and 29.8 µM in experiment [10].

Take `Clc1ncc(Cl)c(Cl)n1`: the TGI is 7.49 µM in [1]; 40.2 µM in experiment [2]; 28.8 µM in experiment [3]; greater than 100 µM in [4]; 23.3 µM in experiment [5]; 3.75 µM in experiment [6]. Also, the TGI in [7] is 4.8 µM; in experiment [8] it was greater than 100 µM; in [9], 19.3 µM; in experiment [10], 5.91 µM.

`NC(=O)CC(N=C1C(=O)OC(C(O)CO)C1=NC(CC(N)=O)C(=O)O)C(=O)O` (stereo not given): the TGI in experiment [1], in experiment [2], in experiment [3], in experiment [4], in [5] and in experiment [6] was greater than 100 µM each time. Also, the TGI in [7], in experiment [8], in experiment [9] and in experiment [10] was greater than 100 µM each time.

Regarding `C[C@]1(O)O[C@@H]2OCC[C@@H]2C2=C1C(=O)c1ccccc1C2=O`, the TGI in experiment [1] was determined as 28.8 µM; in experiment [2] it was 27.1 µM; in experiment [3], 35.2 µM; in experiment [4], 51.2 µM; in experiment [5] it was 27.2 µM; in experiment [6], 29.5 µM. For the same compound, the TGI was 23.3 µM in [7], 32.8 µM in [8], 29.4 µM in experiment [9] and 51.1 µM in experiment [10].

On to `COc1ccc2cc(C(=O)NCCCNC(=O)c3ccc4cc(OC)ccc4c3)ccc2c1`, for which the TGI in experiment [1] is 57.5 µM; in experiment [2], greater than 100 µM; in [3] it was greater than 100 µM; in [4] it was greater than 100 µM; in experiment [5], greater than 100 µM; in [6], greater than 100 µM. Further, the TGI in experiment [7] was greater than 100 µM; in experiment [8], greater than 100 µM; in experiment [9], greater than 66.3 µM; in experiment [10], greater than 100 µM.

On to `NC(=O)c1nnsc1NC=O`, for which the TGI in [1], in [2], in experiment [3], in experiment [4], in experiment [5] and in [6] was greater than 100 µM in each case. For the same compound, the TGI in experiment [7], in [8], in [9] and in experiment [10] was greater than 100 µM in each case.

For the compound `Cc1nc2ccccc2n1Cc1nnc(N)o1`, the TGI in [1], in experiment [2], in experiment [3], in [4], in [5] and in [6] was greater than 100 µM in each case. In addition, the TGI in [7], in experiment [8], in experiment [9] and in experiment [10] was greater than 100 µM each time.

`CCCCCCCCCCCCCCCCCCOCC(COP(=O)([O-])OCC[N+](C)(C)C)OC` (stereo not given): the TGI is greater than 71.7 µM in [1]; 45.8 µM in [2]; 49.3 µM in experiment [3]; 28 µM in [4]; 18.7 µM in experiment [5]; 46.8 µM in experiment [6]. For the same compound, the TGI is greater than 54.3 µM in experiment [7], 17.6 µM in experiment [8], 57.7 µM in [9] and 34.6 µM in experiment [10].

On to `CC1(C)CCC(=O)NC1CC(=O)CC1NC(=O)CCC1(C)C` (stereo not given), for which the TGI in experiment [1], in [2], in [3], in experiment [4], in experiment [5] and in [6] was greater than 100 µM each time. The TGI in experiment [7], in [8], in [9] and in experiment [10] was greater than 100 µM in each case.

Consider `Clc1nc(Cl)c(CBr)c(Cl)n1`, for which the TGI worked out at 5.18 µM in experiment [1]; 32.1 µM in experiment [2]; 35.2 µM in experiment [3]; 3.41 µM in experiment [4]; 14.1 µM in [5]; 28.7 µM in [6]. The TGI in [7] was 26 µM; in experiment [8] it was 18.5 µM; in [9], 10.2 µM; in experiment [10] it was 6.79 µM.

On to `CC(=O)OCC1=C(C)C[C@H]([C@@H](COC(C)=O)C2CCC3C4C[C@H]5O[C@]56CC=CC(=O)[C@]6(C)C4CC[C@@]32C)OC1=O` (stereo not given in full), for which the TGI in [1] is 1.58 µM; in [2] it was 1.64 µM; in [3] it was 7.12 µM; in [4], 0.353 µM; in experiment [5], 0.849 µM; in experiment [6] it was 0.963 µM. Moreover, the TGI in [7] worked out at 2.09 µM; in experiment [8], 2.91 µM; in [9], 0.714 µM; in [10], 1.18 µM.

In the case of `CC(=O)O[C@H]1C[C@H]2C(=S)Nc3ccccc3C(=S)N2C1`, the TGI in experiment [1], in [2], in [3], in [4], in experiment [5] and in experiment [6] was greater than 100 µM each time. The TGI in [7], in experiment [8], in experiment [9] and in experiment [10] was greater than 100 µM in each case.

As to `c1ccc2nc(CCC3CCCCN3)ccc2c1` (stereo not given), the TGI in [1], in experiment [2], in experiment [3], in [4], in [5] and in experiment [6] was greater than 100 µM throughout. Further, the TGI in [7], in experiment [8], in experiment [9] and in experiment [10] was greater than 100 µM each time.

With `CC(=O)N1c2ccccc2C(C)C1c1[nH]c2ccccc2c1C` (stereo not given), the TGI in experiment [1] was 39.9 µM; in [2], 53.8 µM; in experiment [3] it was 83.2 µM; in experiment [4], greater than 100 µM; in [5], greater than 100 µM; in [6], greater than 100 µM. For the same compound, the TGI in experiment [7] was greater than 100 µM; in experiment [8], greater than 100 µM; in experiment [9], 57.3 µM; in [10] it was 33.9 µM.

Regarding `CC(=O)OCC1OC(O/C=C(\CN=[N+]=[N-])C(C)=O)C(OC(C)=O)C(OC(C)=O)C1OC(C)=O` (stereo not given), the TGI in experiment [1] stood at 18.2 µM; in experiment [2] it was 47.5 µM; in [3], 46.2 µM; in experiment [4], 3.59 µM; in [5], 39.2 µM; in [6], 10.3 µM. The TGI is 28 µM in experiment [7], 48.9 µM in [8], greater than 100 µM in [9] and 29.5 µM in [10].

Regarding `O=C1C(NCCN2CCOCC2)=C(Cl)C(=O)c2ncccc21`, the TGI in experiment [1] stood at 1.6 µM; in [2], 3.98 µM; in experiment [3], 3.36 µM; in [4], 1.1 µM; in experiment [5], 2.3 µM; in experiment [6], 1.9 µM. Moreover, the TGI in experiment [7] came out at 1.14 µM; in experiment [8], 1.71 µM; in experiment [9] it was 1.9 µM; in experiment [10] it was 2.74 µM.
